In patent US9011863B2, “Combinations of kinase inhibitors for the treatment of cancer” (Exelixis, Inc., priority 2010, dated 2015):
Read-outs that look alike come from different tables or passages of the source.

Experiments:
[1] = system: HER3 expression in A549 human lung xenografts; assay: HER3 modulation in A549 tumors; format: in vivo, Swiss nude mice
Method: Briefly, mice bearing measurable lung A549 tumors implanted SC have been left untreated or treated either by MM121 as a single agent (at dose of 5 mg/kg or 30 mg/kg, one administration) or by compound A as a single agent (at dose of 30 mg/kg or 100 mg/kg, daily administrations) or by a combination of both (at 30 mg/kg for MM121 and 100 mg/kg for compound A). The HER3 expression level in xenografted tumors has been followed for up to 96 hours.

[2] = Method: The lung cancer cell line A549 was selected for this study. […] Lung A549 cells were implanted s.c. in female Swiss nude mice using standard techniques. […] Control groups were left untreated. […]
For the evaluation of anti-tumor activity of conjugates, animals were weighed daily and tumors were measured twice weekly by caliper. A dosage producing a 20% weight loss at nadir (mean of group) or a 15% weight loss (mean of group) three successive times or drug deaths, was considered an excessively toxic dosage. Animal body weights included the tumor weights. Tumor weights were calculated using the formula mass (mg)=[length (mm)×width (mm)2]/2. The primary efficacy end points are ΔT/ΔT, percent median regression, partial and complete regressions (PR and CR), and Tumor free survivors (TFS). Changes in tumor volume for each treated (T) and control (C) were calculated for each tumor by subtracting the tumor volume on the day of first treatment (staging day) from the tumor volume on the specified observation day. The median ΔT was calculated for the treated group, and the median ΔT was calculated for the control group. Then the ratio ΔT/ΔT was calculated and expressed as a percentage: ΔT/ΔT=(delta T/delta C)×100. A dose is considered therapeutically active when ΔT/ΔT is lower than 40% and very active when ΔT/ΔT is lower than 10%. […] Percent tumor regression is defined as the percent of tumor volume decrease in the treated group at a specified observation day compared to its volume on the first day of first treatment. At a specific time point and for each animal, percent regression is calculated. The median percent regression is then calculated for the group. % regression (at t)=[volumet0−volumet/volument0]×100. Partial regression (PR): Regressions are defined as partial if the tumor volume decreases to 50% of the tumor volume at the start of treatment. Complete regression (CR): Complete regression is achieved when tumor volume=0 mm^3 (CR is considered when tumor volume cannot be recorded). TFS: Tumor free is defined as the animals with undetectable tumors at the end of the study (>100 days post last treatment).

[3] = system: HCC1937 human breast cancer cells; assay: HCC1937 cell viability, alamar blue assay; format: cell-based; conditions: read-out: growth inhibition IC50
Method: FIG. 1B. siRNA screen to identify kinases that potentially compensate for PI3K inhibition. HCC1937 cells were seeded in triplicate in a 96-well plate and treated with DMSO or the indicated concentration of compound A for 72 hours. Cell viability was measured by the alamar blue assay.
The purpose of the present study is to identify kinases and kinase-regulated signaling pathways that compensate for PI3K inhibition in human breast cancer cells. To this end, siRNA screen is employed targeting 779 human kinases in order to determine if downregulation of specific kinases increases the sensitivity of HCC1937 human breast cancer cells to the PI3K inhibitor compound A, which a compound of formula I and of Table 1. […] Following reverse transfection with the siRNA library, cells are treated with either DMSO or 10 μM compound A for 72 hours in a medium containing 2.5% fetal bovine serum (FIGS. 1A and 2) and the alamar blue assay is used to measure cell viability FIG. 1B. […] HCC1937 cells were treated with 10 μM compound A in medium containing 2.5% FBS for 0, 2, 8, or 24 hours. RNA was isolated with Trizol and purified using the RNeasy column (Qiagen). Gene expression from three independent experiments was measured using the Gene titan 3′ microarray. *, p<0.05; **, p<0.01 versus 0 hours, as shown in FIG. 5.

[4] = system: receptors of tyrosine kinase (RTKs) in BT474 cells; assay: phospho-RTK arrays and RTK qPCR in BT474 cells; format: cell-based, human
Method: FIG. 19B depicts a photomicrograph of BT474 cells were treated with 6 μM compound A over a time course up to 24 hours as indicated. Cell lysates were prepared, and 200 μg of total protein were hybridized to arrays containing probes for 42 different receptors of tyrosine kinase (RTKs).
FIG. 19C depicts a photomicrograph of BT474 cells were treated with 6 μM compound A over a time course up to 24 hours as indicated.
FIG. 19D depicts a bar-graph representing the amount of RTK mRNA as identified using real-time qPCR analysis of the indicated RTKs in RNA collected from BT474 cells treated with either DMSO or 10 μM compound A for 6 hours.
Immunoprecipitation, immunoblotting, and RTK assays were performed according to published methods. Primary antibodies included AKT, pAKT^S473, pAKT^T308, ERK, pERK^T202/Y204, pHER2^Y1248, pHER3^Y1197, pHER3^Y1222, pHER3^Y1289, S6, pS6^S240/244, p27, pRb^S780, FoxO1, FoxO3a, MEK1/2 (Cell Signaling Technology, Danvers, Mass., USA), p85, 4G10 pTyr (Millipore, Billerica, Mass., USA), HER3, CyclinD1, RhoA, HDAC3 (Santa Cruz Biotechnology, Santa Cruz, Calif., USA), PARP (BD Transduction Laboratories), β-actin (Sigma, St. Louis, Mo., USA), and HER2 (Neomarkers, division of Thermo Scientific, Freemenot, Calif., USA). […] Immunoreactive signals were detected by enhanced chemilluminsecence (Pierce, Rockford, Ill., USA). […]

[5] = Compound A PO 5 (160) mg/kg Q1Dx32
[6] = Compound A PO 100 (3200) mg/kg Q1Dx32

COc1ccc(Cl)c(Nc2nc3ccccc3nc2NS(=O)(=O)c2cccc(NC(=O)C(C)(C)N)c2)c1 [Compound A]
HER3 expression, Change vs Control (%) ([1]; Compound A 30 mg/kg PO: Q1Dx1, 4 h): −3%
HER3 expression, Change vs Control (%) ([1]; Compound A 30 mg/kg PO: Q1Dx1, 24 h): 12%
HER3 expression, Change vs Control (%) ([1]; Compound A 30 mg/kg PO: Q1Dx2, 24 h): 23%
HER3 expression, Change vs Control (%) ([1]; Compound A 30 mg/kg PO: Q1Dx3, 24 h): 27%
HER3 expression, Change vs Control (%) ([1]; Compound A 100 mg/kg PO: Q1Dx1, 4 h): 10%
HER3 expression, Change vs Control (%) ([1]; Compound A 100 mg/kg PO: Q1Dx1, 24 h): 19%
HER3 expression, Change vs Control (%) ([1]; Compound A 100 mg/kg PO: Q1Dx2, 24 h): 45%
HER3 expression, Change vs Control (%) ([1]; Compound A 100 mg/kg PO: Q1Dx3, 24 h): 37%
HER3 expression in A549 lung model (summary of Table 5) ([1]; up to 96 hours): slight increase of HER3 expression
Average body weight change in % per mouse at nadir [2, 5]: −7.34%
Drug death (Day of death) [2, 5]: 0/7
day of nadir [2, 5]: 65 days
Average body weight change in % per mouse at nadir [2, 6]: −10.25%
Drug death (Day of death) [2, 6]: 0/7
day of nadir [2, 6]: 65 days
Average body weight change in % per mouse at nadir ([2]; Compound A PO 100 (3200) mg/kg Q1Dx32, listed as compound A): −10.3%
body weight loss at nadir ([2]; compound A at 30 mg/kg PO daily): −7.3%
IC50 [3]: 10 µM
phospho-RTK arrays ([4]; BT474, 6 μM, 24-h time course): increase in not only HER3, but also multiple other RTKs
RTK mRNAs by qPCR ([4]; BT474, 10 μM, 6 hours): increase in ERBB4, IGF-IR, InsR, EphA1, FGFR2, and FGFR3 mRNAs
